We go through 32 molecules from ChEMBL document CHEMBL5241058, “Pyrazole-based analogs as potential antibacterial agents against methicillin-resistance staphylococcus aureus (MRSA) and its SAR elucidation” (Eur J Med Chem, 2021).

Holding throughout (format): functional
For assay [1], the system named is Staphylococcus aureus. Briefly: Antimicrobial activity against Methicillin-resistant Staphylococcus aureus assessed as bacterial growth inhibition incubated for 24 to 48 hrs by microdilution method. The note with it: time 24-48 hrs. (Dilution methods test growth across graded concentrations, often in twofold steps.)
The subject of assay [2] is Staphylococcus aureus. Briefly: Antimicrobial activity against Methicillin-resistant Staphylococcus aureus assessed as bacterial growth inhibition.
Assay [3] has as its system Staphylococcus aureus. Briefly: Antimicrobial activity against Methicillin-resistant Staphylococcus aureus ATCC 43300 assessed as bacterial growth inhibition by microdilution method.
The test system of assay [4] is Staphylococcus aureus. Briefly: Antimicrobial activity against Methicillin-resistant Staphylococcus aureus ATCC 33599 assessed as bacterial growth inhibition.
Assay [5] relates to Staphylococcus aureus. The assay can be described thus: Antimicrobial activity against vancomycin intermediate-resistant Staphylococcus aureus assessed as bacterial growth inhibition incubated for 24 hrs by microdilution method.
Assay [6] concerns Staphylococcus aureus. Briefly: Antimicrobial activity against Methicillin-resistant Staphylococcus aureus ATCC 43300 assessed as bacterial growth inhibition incubated for 24 hrs by microdilution method. The note with it: ATCC43300.
Assay [7] deals with Staphylococcus aureus. Briefly: Antimicrobial activity against Staphylococcus aureus MTCC 96 assessed as bacterial growth inhibition incubated for 24 to 48 hrs. As to conditions: time 24-48 hrs.
The subject of assay [8] is Staphylococcus aureus. Briefly: Antimicrobial activity against Staphylococcus aureus MTCC 442 assessed as bacterial growth inhibition incubated for 24 to 48 hrs. The note with it: time 24-48 hrs.
Assay [9] deals with Staphylococcus aureus. Briefly: Antimicrobial activity against Methicillin-resistant Staphylococcus aureus CCARM 3506 assessed as bacterial growth inhibition incubated for 24 hrs by ELISA assay. A general note: In an ELISA, binding on a coated surface is turned into a signal by an enzyme label.
For assay [10], the system named is Salmonella enterica subsp. enterica. The assay can be described thus: Antimicrobial activity against Salmonella typhimurium […] assessed as bacterial growth inhibition incubated for 18 hrs by microdilution method.
The subject of a further assay is Escherichia coli. Briefly: Antimicrobial activity against Escherichia coli ATCC 8739 assessed as bacterial growth inhibition incubated for 18 hrs by microdilution method.
Another assay relates to Pseudomonas aeruginosa. Briefly: Antimicrobial activity against Pseudomonas aeruginosa ATCC 27853 assessed as bacterial growth inhibition incubated for 18 hrs by microdilution method.
Another assay relates to Klebsiella pneumoniae. The assay can be described thus: Antimicrobial activity against Klebsiella pneumoniae ATCC 314588 assessed as bacterial growth inhibition incubated for 18 hrs by microdilution method.

Each structure is given as a SMILES string. In brackets after ≈: the same amount, converted by molar mass.

By MIC is commonly meant the lowest concentration that inhibits growth of the organism. Usually MBC stands for the lowest tested concentration that kills the bacteria rather than only halting them.

On to `CC(=O)Nc1c(C(N)=O)cnn1-c1ccc([N+](=O)[O-])cc1[N+](=O)[O-]`, for which the minimal inhibitory concentration (MIC) with Staphylococcus aureus [1] worked out at 99.4 µg/mL (≈ 297 µM).
Same read-out and setting: with `CC1=C(C(=O)O)N2C(=O)[C@@H](NC(=O)[C@H](N)c3ccccc3)[C@H]2SC1` [CEPHALEXIN ANHYDROUS] the figure was 72 µg/mL (≈ 207 µM); with `CC[C@H]1OC(=O)[C@H](C)[C@@H](O[C@H]2C[C@@](C)(OC)[C@@H](O)[C@H](C)O2)[C@H](C)[C@@H](O[C@@H]2O[C@H](C)C[C@H](N(C)C)[C@H]2O)[C@](C)(O)C[C@@H](C)C(=O)[C@H](C)[C@@H](O)[C@]1(C)O` [ERYTHROMYCIN], 32 µg/mL (≈ 43.6 µM).
For `Cc1cc(NS(=O)(=O)c2ccc(N)cc2)no1` [SULFAMETHOXAZOLE], in the assay on Staphylococcus aureus [2], the minimal inhibitory concentration (MIC) amounted to 16 µg/mL (≈ 63.2 µM).
Consider `O=C1S/C(=C\c2cn(-c3ccccc3)nc2-c2cccc([N+](=O)[O-])c2)C(=O)N1CCCn1ccc2ccccc21`, for which the MIC in the assay with Staphylococcus aureus [3] was found to be 50 µg/mL.
For `O=C1CN(c2nnc(-c3cccc(Br)c3)s2)C(c2cn(-c3ccccc3)nc2-c2cccc([N+](=O)[O-])c2)S1` (stereo not drawn), the minimum bactericidal concentration (MBC) in the assay on Staphylococcus aureus [2] came to 156 µg/mL (≈ 258 µM).
For `CCn1ncc2c3c(C#N)c4ccc(Br)cc4nc3ccc21`, the MIC in the assay with Staphylococcus aureus [2] was determined as 2 µg/mL (≈ 5.69 µM).
For `O=C(O)c1ccc(-n2cc(/C=N/c3cccc(Cl)c3F)c(-c3ccc4ccccc4c3)n2)cc1`, in the assay with Staphylococcus aureus [4], the MBC came out at 12.5 µg/mL (≈ 26.6 µM) and the MIC was found to be 0.78 µg/mL (≈ 1.66 µM).
`O=C(c1cc(C(F)(F)F)n[nH]1)c1cc(Cl)ccc1O`: the minimal inhibitory concentration (MIC) with Staphylococcus aureus [5] is under 0.125 µg/mL.
As for `CCCn1ncc2c3c(C#N)c4ccc(Br)cc4nc3ccc21`, the minimum inhibitory concentration (MIC) in the assay on Staphylococcus aureus [2] amounted to 1 µg/mL (≈ 2.74 µM).
As for `Cc1nn(-c2ccc(Cl)cc2)c2c1C(C(=O)O)CC=C(C(=O)O)N2` (stereo not drawn), the MIC with Staphylococcus aureus [6] is over 500 µg/mL.
Turning to `Cc1nn(-c2ccc(Br)cc2)c2c1C(C(=O)O)CC=C(C(=O)O)N2` (stereo not drawn), the MIC with Staphylococcus aureus [6] is over 500 µg/mL.
With `CCCCn1ncc2c3c(C#N)c4ccccc4nc3ccc21`, the MIC in the assay with Staphylococcus aureus [2] was determined as 2 µg/mL (≈ 6.66 µM).
Consider `O=C(c1cc(C(F)(F)F)n[nH]1)c1cc(Br)ccc1O`, for which the minimum inhibitory concentration (MIC) in the assay on Staphylococcus aureus [5] is under 0.125 µg/mL.
Take `CC1(C)S[C@@H]2[C@H](NC(=O)[C@H](N)c3ccccc3)C(=O)N2[C@H]1C(=O)O` [AMPICILLIN]: the minimal inhibitory concentration (MIC) in the assay on Staphylococcus aureus [2] was 62 µg/mL (≈ 177 µM).
For `O=C(/C=C/c1cccc([N+](=O)[O-])c1)N1N=C(c2ccncc2)OC1c1cn(-c2ccccc2)nc1-c1ccc(F)cc1` (stereo not drawn), the MIC with Staphylococcus aureus [7] and with Staphylococcus aureus [8] was over 50 µg/mL throughout.
In the case of `NC(=O)c1cnn(-c2ccc([N+](=O)[O-])cc2[N+](=O)[O-])c1NC(=O)c1ccc(Br)cc1`, the minimum inhibitory concentration (MIC) with Staphylococcus aureus [1] amounted to 29.4 µg/mL (≈ 61.9 µM).
For `Cc1ccc(O)c(C(=O)c2cc(C(F)(F)F)n[nH]2)c1`, the MIC in the assay with Staphylococcus aureus [5] is under 0.125 µg/mL.
Take `Cc1nn(-c2ccc(Cl)cc2Cl)c(Oc2ccc(Cl)cc2)c1C1N=C(N)NC(NCCc2ccccc2)=N1` (stereo not drawn): the MIC in the assay with Staphylococcus aureus [9] is 0.5 µg/mL (≈ 0.879 µM).
With `NC(=O)c1cnn(-c2ccc([N+](=O)[O-])cc2[N+](=O)[O-])c1NC(=O)c1cccc(Cl)c1`, the MIC with Staphylococcus aureus [1] is 45.3 µg/mL (≈ 105 µM).
Consider `Cc1nn(-c2ccccc2Cl)c2c1C(C(=O)O)CC=C(C(=O)O)N2` (stereo not drawn), for which the minimal inhibitory concentration (MIC) with Staphylococcus aureus [6] is over 500 µg/mL.
Turning to `CC(C)Cn1ncc2c3c(C#N)c4ccc(Br)cc4nc3ccc21`, in the assay with Staphylococcus aureus [2], the MIC amounted to 6 µg/mL (≈ 15.8 µM).
With `Cc1nn(-c2ccc(Cl)cc2Cl)c(Oc2ccc3ccccc3c2)c1C1N=C(N)NC(NCCc2ccccc2)=N1` (stereo not drawn), the minimal inhibitory concentration (MIC) in the assay with Staphylococcus aureus [9] worked out at 0.5 µg/mL (≈ 0.855 µM).
Consider `Cc1nn(-c2ccc(Cl)cc2Cl)c(Oc2cccc(Br)c2)c1C1N=C(N)NC(NCCc2ccccc2)=N1` (stereo not drawn), for which the MIC in the assay with Staphylococcus aureus [9] was found to be 0.5 µg/mL (≈ 0.815 µM).
In the case of `O=C1CN(c2nnc(-c3cccc([N+](=O)[O-])c3)s2)C(c2cn(-c3ccccc3)nc2-c2cccc([N+](=O)[O-])c2)S1` (stereo not drawn), the MBC with Staphylococcus aureus [2] was found to be 312 µg/mL (≈ 547 µM).
`Cn1ncc2c3c(C#N)c4ccccc4nc3ccc21`: in the assay with Staphylococcus aureus [2], the MIC is 6 µg/mL (≈ 23.2 µM).
On to `Cc1nn(-c2ccc(C#N)cc2)c2c1C(C(=O)O)CC=C(C(=O)O)N2` (stereo not drawn), for which the minimum inhibitory concentration (MIC) in the assay with Staphylococcus aureus [6] is over 500 µg/mL.
Consider `O=C(O)c1ccc(-n2cc(/C=N/c3ccc(C(F)(F)F)cc3)c(-c3ccc4ccccc4c3)n2)cc1`, for which, in the assay with Staphylococcus aureus [4], the minimal bactericidal concentration (MBC) was determined as 25 µg/mL (≈ 51.5 µM) and the MIC was 0.78 µg/mL (≈ 1.61 µM).
As to `COc1cc(Cc2cnc(N)nc2N)cc(OC)c1OC` [TRIMETHOPRIM], in the assay with Staphylococcus aureus [9], the MIC turned out to be 4 µg/mL (≈ 13.8 µM).
With `Clc1ccccc1-c1nn(-c2ccccc2)cc1-c1nc2ccccn2c1Cc1ccccc1`, the minimum inhibitory concentration (MIC) (in assay [10]; in the assay with Escherichia coli; with Pseudomonas aeruginosa; in the assay with Klebsiella pneumoniae) was under 1 µg/mL throughout.
On to `CCn1ncc2c3c(C#N)c4ccccc4nc3ccc21`, for which the MIC in the assay on Staphylococcus aureus [2] was determined as 3 µg/mL (≈ 11 µM).
In the case of `O=C1S/C(=C\c2cn(-c3ccccc3)nc2-c2ccc(Cl)cc2Cl)C(=O)N1CCCn1ccc2ccccc21`, in the assay with Staphylococcus aureus [3], the minimal inhibitory concentration (MIC) amounted to 6.25 µg/mL.
